Test results published in patent US9951055B2, “Thiazole-based inhibitors of scavenger receptor BI” (THE BROAD INSTITUTE, INC., priority 2012, dated 2018).
Entries after “also recorded” stand apart in the source; their conditions may differ.

Columns and labels:
[1] = system: Jc1 378-1 TagRFP reporter HCV virus; test: In vitro inhibition of HCV in Huh-7.5 cells; assay type: cell-based, hepatitis C virus; conditions: for inhibition of HCV replication: Huh-7.5 cells, MOI=0.1, 3 dpi; for mean fluorescence intensity (MFI) of HCV positive cells: normalized to DMSO control
Procedure: The compound of formula (II) was also tested for the in vitro inhibition of HCV. Huh-7.5 cells were seeded in a 24-well plates (50,000 cells/well) and incubate over night. The medium was changed to compound/solvent containing medium 2 hours prior to infection (200 μL/well) with a reporter HCV virus called Jc1 378-1 TagRFP. A dilute virus stock was used to infect at a MOI of 0.1 (7,500 IU/well) in 10 μL medium. 10 μL of virus dilution was added to the wells containing compound/solvent (thereby dilution the compounds by only ˜5%). Infections were incubated for 4 hours before washing off the inoculum 1× with 500 μL medium. Fresh compound/solvent containing medium was added to the cells (500 μL/well), and further incubated for 48-72 hours. Cells were harvested at 48-72 hpi and viral replication was determined by fixing the cells and measuring replication by FACS (fluorescence activated cell sorting). Controls having antibodies that neutralize HCV by blocking E2 (2 μg/mL) and controls having antibodies that block a HCV receptor CD81 (2 μg/mL) were used.
A series of tests were conducted using the compound of Formula II ML278), other known inhibitors of SRB1 and controls with cells infected with hepatitis C virus (HCV). The cells (Huh-7.5 cells infected with Jc1 378-1 TagRFP (MOI=0.1) 3 dpi) were treated with the following SR-BI compounds and controls:
Three different infection protocols were followed: (1) no wash—virus inoculum was removed 4 hpi and fresh medium containing compounds added without washing cells; (2) 5× wash—virus inoculum was removed 4 hpi, cells were washed 5× with PBS and fresh medium containing compounds added; and (3) no wash Opt—infection were performed in serum-free OptiMem; virus inoculum was removed 4 hpi and fresh medium containing compounds added without washing cells. FIG. 107 provides a comparison of the three different infection set-ups. FIG. 108 provides a comparison of two independent experiments.

murine SR-BI = target: T1, murine SR-BI (Mus musculus, UniProt Q61009); test: DiI-HDL uptake assay (primary assay); assay type: cell-based
T1 construct: expressed in transfected cells; host or cells: ldlA[mSR-BI]; (CHO ldlA7 derivative lacking the LDL receptor)
T1 sequence (Q61009 1-509): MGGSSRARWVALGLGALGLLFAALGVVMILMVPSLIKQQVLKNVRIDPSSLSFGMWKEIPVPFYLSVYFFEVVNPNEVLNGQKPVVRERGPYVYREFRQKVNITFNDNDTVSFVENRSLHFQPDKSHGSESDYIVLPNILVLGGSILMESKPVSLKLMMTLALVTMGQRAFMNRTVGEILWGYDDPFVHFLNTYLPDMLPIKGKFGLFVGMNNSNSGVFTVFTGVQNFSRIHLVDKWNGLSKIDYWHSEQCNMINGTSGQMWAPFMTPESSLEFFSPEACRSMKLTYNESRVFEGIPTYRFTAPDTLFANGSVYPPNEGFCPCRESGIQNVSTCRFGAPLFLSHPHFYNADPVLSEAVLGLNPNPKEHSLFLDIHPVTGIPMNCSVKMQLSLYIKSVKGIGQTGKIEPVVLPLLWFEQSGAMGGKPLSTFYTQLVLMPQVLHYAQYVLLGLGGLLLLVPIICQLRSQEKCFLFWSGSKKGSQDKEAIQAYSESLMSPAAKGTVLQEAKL
Description: The following cell lines were used in this study: • ldlA[mSR-BI] is a Chinese hamster ovary (CHO) cell line that overexpresses murine SR-BI, isoform 1 (NP_058021) and was obtained from the Assay Provider (Krieger Laboratory). This cell line was used for the primary assay and several secondary assays. […] This cell line was obtained from the Assay Provider. Assays DiI-HDL Uptake Assay (Primary Assay AID Nos. 488896, 493194, 540354 588392, 588553, 588548, 588754, 588828, 588833)
ldlA[mSR-BI]cells were plated into 384-well plates at 30 μl per well and incubated overnight. As a measurable surrogate for cholesterol uptake, human HDL particles were treated with the lipophilic fluorescent dye DiI and exposed to ldlA[mSR-BI]cells in lipoprotein-free media (Ham's F12/0.5% fatty acid-free Bovine Serum Albumin (BSA)/25 mM HEPES pH 7.4 plus 10 μg protein/ml DiI-HDL). Cells took up the DiI via SR-BI over 3 hours in the presence of compound. After significant uptake of the DiI, the cells became fluorescent. The level of fluorescence correlates with the amount of DiI uptake and can be measured with a standard plate reader (here a PerkinElmer EnVision plate reader was used). The uptake of lipid (represented by DiI) was inhibited by the positive control compound BLT-1 or with an excess of HDL untreated with DiI. Primary HTS data were analyzed in Genedata Screener Assay Analyzer, and were normalized against DMSO and the positive control (1 μM BLT-1). For the HTS, the average of two replicates was used to rank order activity and to choose compounds for retests. For dose studies, percent (%) activity was determined for each concentration and the concentration response curves (CRCs) were generated with Genedata Condeseo.
To identify novel inhibitors, SR-BI-mediated lipid uptake was measured in an engineered cell line that minimized potential uptake by other mechanisms, including via the LDL receptor (1). ldlA[mSR-BI]cells overexpress murine isoform 1 and selectively take up HDL lipid at similar levels as “has been reported for cultured mouse adrenal cells, perfused organs, and liver, adrenal gland and ovary in vivo” (1). This primary cell-based assay was used in a pilot screen that identified BLTs 1 through 5 (12). The assay was slightly modified from the original protocol of Nieland et al. to increase throughput and to ease automation procedures.

Row | Compound | inhibition of HCV replication ([1]; listed as SRB1-8) | mean fluorescence intensity (MFI) of HCV positive cells [1] | reduction in signal (DiI-HDL uptake) (murine SR-BI; 1 μM, positive control in primary HTS) | EC50 ([1]; Hepatitis C virus, Huh7.5, read-out: EC50, HCV) | EC90 ([1]; Hepatitis C virus, Huh7.5, read-out: EC90, HCV) | inhibition of HCV replication ([1]; listed as SRB1-7) | higher potency than ITX-5061 (murine SR-BI) | improved potency over the original hit (murine SR-BI) | selectivity (murine SR-BI) | IC50 (murine SR-BI; read-out: IC50, DiI-HDL uptake)
1 | CCCCCCC1CCCC1=NNC(N)=S (centres unmarked) [BLT-1, reference compound] | inhibited viral replication; also recorded: able to inhibit HCV replication | increased mean fluorescence intensity (MFI) of HCV positive cells in a dose dependent manner | > 2.2 fold | – | – | – | – | – | – | –
2 | COCC(=O)N1CCc2cc(-c3csc(NC(=O)c4cc(OC)cc(OC)c4)n3)ccc21 [Compound 137, 3,5-Dimethoxy-N-(4-(1-(2-methoxyacetyl)indolin-5-yl)thiazol-2-yl)benzamide] | – | this increase was not seen | – | 44 nM | ~500 nM | inhibited viral replication; also recorded: able to inhibit HCV replication | approximately 15 fold | > 20 fold | greater than 1000 | 2 nM
